Values joined by “and” are separate entries in the source; they are usually repeats but may differ in a detail not shown here. Equal values may be shown once.
Experiments:
[1] = test system: Alcaligenes faecalis TE3581 (FERM P-14237) creatine amidinohydrolase, wild, SEQ ID NO: 1 (gene SEQ ID NO: 2); assay: Km value for creatine, coupling assay using sarcosine oxidase and peroxidase (wild enzyme); format: biochemical; details: coupling assay with sarcosine oxidase and peroxidase, pH 7.6, 37° C.
Description: While the gene encoding a wild creatine amidinohydrolase which is to be mutated is not particularly limited, in one embodiment of the present invention, it is the creatine amidinohydrolase gene depicted in the Sequence Listing•SEQ ID:No.2, which is derived from Alcaligenes•faecalis TE3581 (FERM P-14237).
In another embodiment of the present invention, a novel creatine amidinohydrolase having a smaller Km value for creatine than a wild creatine amidinohydrolase is produced by mutating the gene encoding the amino acid sequence depicted in the Sequence Listing•SEQ ID No:1. […]
In the Examples, the activity of creatine amidinohydrolase was determined as follows. […]
The above-mentioned reaction mixture (3 ml) is taken with a cuvette (d=1 cm) and preliminarily heated to 37° C. for about 3 minutes. […] Using water as a control, changes in absorbance at 500 nm are recorded for 5 minutes using a spectrophotometer controlled to 37° C. Based on the linear portion of 2-5 minutes thereof, changes in absorbance per minute are determined (ΔOD) test.
The blank test is performed in the same manner as above except that a solution (0.1 ml, 50 mM potassium phosphate buffer, pH 7.5) for diluting the enzyme is used instead of the enzyme solution and changes in absorbance per minute are determined (ΔOD blank).
The enzyme amount is calculated by inserting each measure into the following formula. […]

[2] = test system: Alcaligenes faecalis TE3581 creatine amidinohydrolase mutant pCRH273M1 (FERM BP-5374), purified from Escherichia coli JM109 (pCRH273M1); assay: Km value for creatine, coupling assay using sarcosine oxidase and peroxidase (mutant pCRH273M1); format: biochemical; details: coupling assay with sarcosine oxidase and peroxidase, pH 7.6, 37° C.
[3] = test system: Alcaligenes faecalis TE3581 creatine amidinohydrolase mutant pCRH273M2 (FERM BP-5375), purified from Escherichia coli JM109 (pCRH273M2); assay: Km value for creatine, coupling assay using sarcosine oxidase and peroxidase (mutant pCRH273M2); format: biochemical; details: coupling assay with sarcosine oxidase and peroxidase, pH 7.6, 37° C.
[4] = test system: Alcaligenes faecalis TE3581 creatine amidinohydrolase mutant pCRH273M3 (FERM BP-5376), purified from Escherichia coli JM109 (pCRH273M3); assay: Km value for creatine, coupling assay using sarcosine oxidase and peroxidase (mutant pCRH273M3); format: biochemical; details: coupling assay with sarcosine oxidase and peroxidase, pH 7.6, 37° C.
[5] = test system: Pseudomonas putida creatine amidinohydrolase; details: residual creatine determined with α-naphthol and diacetyl; Archives Biochemistry and Biophysics 177, 508-515 (1976); read-out: apparent Km value for creatine; cited from earlier work
[6] = test system: creatine amidinohydrolase derived from bacteria belonging to the genus Corynebacterium; details: Japanese Patent Examined Publication No. 76915/1991; cited from earlier work
[7] = test system: creatine amidinohydrolase derived from bacteria belonging to the genus Micrococcus; details: Japanese Patent Examined Publication No. 76915/1991; cited from earlier work
[8] = test system: creatine amidinohydrolase derived from bacteria belonging to the genus Actinobacillus; details: Japanese Patent Examined Publication No. 76915/1991; cited from earlier work
[9] = test system: creatine amidinohydrolase derived from bacteria belonging to the genus Bacillus; details: Japanese Patent Examined Publication No. 76915/1991; cited from earlier work
[10] = test system: creatine amidinohydrolase produced by bacteria belonging to the genus Alcaligenes (Japanese Patent Unexamined Publication No. 63363/1994); details: cited from earlier work

Question: What does the source list for `CN(CC(=O)O)C(=N)N` [creatine]?
Answer: Km [1]: 15.2 mM; Km [2]: ~6.5 mM and 6.5 mM; Km [3]: ~4.5 mM and 4.5 mM; Km [4]: ~9 mM and 9 mM; Km [5]: 1.33 mM; Km [6]: ~20 mM; Km [7]: ~20 mM; Km [8]: ~20 mM; Km [9]: ~20 mM; Km [10]: ~15.2 mM

Reference: USRE39352E1, “Creatine amidinohydrolase, production thereof and use thereof” (Toyo Boseki Kabushiki Kaisha, priority 1996, dated 2006)
